Biological target: HM74 (Homo sapiens, UniProt P49019)
Settings: membranes from HM74-expressing HEK293T cells, co-expressed with Go1α
Description: HEK293T cells (HEK293 cells stably expressing the SV40 large T-antigen) were maintained in DMEM containing 10% (v/v) foetal calf serum and 2 mM glutamine. Cells were seeded in 60 mm culture dishes and grown to 60-80% confluency (18-24 h) prior to transfection with pCDNA3 containing the relevant DNA species using Lipofectamine reagent. For transfection, 3 μg of DNA was mixed with 10 μl of Lipofectamine in 0.2 ml of Opti-MEM (Life Technologies Inc.) and was incubated at room temperature for 30 min prior to the addition of 1.6 ml of Opti-MEM. Cells were exposed to the Lipofectamine/DNA mixture for 5 h and 2 ml of 20% (v/v) newborn calf serum in DMEM was then added. Cells were harvested 48-72 h after transfection.
Plasma membrane-containing P2 particulate fractions were prepared from cell pastes frozen at −80° C. after harvest. All procedures were carried out at 4° C. Cell pellets were resuspended in 1 ml of 10 mM Tris-HCl and 0.1 mM EDTA, pH 7.5 (buffer A) and by homogenisation for 20 s with a polytron homogeniser followed by passage (5 times) through a 25-guage needle. Cell lysates were centrifuged at 1,000 g for 10 min in a microcentrige to pellet the nuclei and unbroken cells and P2 particulate fractions were recovered by microcentrifugation at 16,000 g for 30 min. P2 particulate fractions were resuspended in buffer A and stored at −80° C. until required.

Chain of HM74 (P49019 whole entry): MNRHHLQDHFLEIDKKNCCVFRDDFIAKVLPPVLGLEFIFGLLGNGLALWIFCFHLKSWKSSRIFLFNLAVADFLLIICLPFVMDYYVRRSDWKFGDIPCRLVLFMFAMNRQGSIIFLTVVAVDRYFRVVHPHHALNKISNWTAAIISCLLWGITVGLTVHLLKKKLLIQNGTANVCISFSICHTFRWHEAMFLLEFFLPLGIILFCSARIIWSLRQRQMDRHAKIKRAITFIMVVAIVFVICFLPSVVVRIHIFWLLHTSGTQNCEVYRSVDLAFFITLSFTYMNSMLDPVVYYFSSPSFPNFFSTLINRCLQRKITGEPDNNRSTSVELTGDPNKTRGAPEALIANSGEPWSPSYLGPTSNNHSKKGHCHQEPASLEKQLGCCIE

**Q.** How did the “stimulation of [35S]GTPγS binding” value turn out when `O=C(O)CNC(=O)c1cccnc1` [nicotinuric acid] was run?
**A.** Its value is “not found to alter basal”.

Reference: patent US20040254224A1, “Medicaments” (priority 2001, published 2004)
